Patent US20020025298A1, “Use of texaphyrin in ocular diagnosis and therapy” (Pharmacyclics, Inc., priority 1996, published 2002)
Values joined by “and” are separate entries in the source; they are usually repeats but may differ in a detail not shown here. Equal values may be shown once. Read-outs that look alike come from different tables or passages of the source.

What was measured:
[1] = cited from earlier work
[2] = tested on: rabbit plasma proteins and lipoproteins; experiment: In vivo binding to plasma proteins and lipoproteins, KBr density-gradient ultracentrifugation; conditions: for binding to plasma elements (in words): rabbit, in vivo
Procedure: (§1) Plasma Analysis. Rabbits were injected via the ear vein with 1 μmol Lu(III)T2BET/kg and blood was collected at 15 min, 30 min, 3 hr, and 5 hr post administration. EDTA was used as the anticoagulant. Plasma samples (25 μl) were mixed with 10 mM Triton X100 (3 ml) and analyzed by fluorescence. Fluorescence spectra were acquired with a SLM 48000S instrument, excitation was between 450-480 nm and emission monitored from 700-800 nm. In vivo binding of Lu(III)T2BET to rabbit plasma proteins and lipoproteins was assessed using KBr density-gradient ultracentrifugation to fractionate the protein/lipoprotein mixture, followed by fluorescence spectroscopy to determine the relative distribution of Lu(III)T2BET among the low-density lipoproteins (LDL), high-density lipoproteins (HDL), and heavy proteins.

[3] = tested on: induced vascular lesions of the eye; experiment: Photodynamic therapy of induced vascular lesions of the eye; type: in vivo; conditions: rabbit
Procedure: Induction of Neovascularization. Photocoagulation bums were introduced in the right macular retina of seven rabbits with an argon dye laser (Coherent Inc., Palo Alto, Calif.). On average, five lesions were induced with 577 nm light using a spot size of 50 μm using enough power (typically 450 mW) to cause bleeding into the retina. The eyes were photographed immediately after photocoagulation. Fluorescein and ICG angiograms were performed 11-15 days after photocoagulation. […] Four control animals, having no induced lesions, were given fluorescence angiograms with the respective dyes.
PDT Protocol. Animals received Lu(III)T2BET, 30 minutes post injection laser light at 488 nm, spot size of 1000 μm, was directed to each lesion via a slitlamp system. Fluorescein angiography was performed throughout the procedure, from prior to until after PDT.
Thirty minutes after injection with LuT2BET, laser light at 488 nm, spot size of 1000 μm, was directed to the lesion via a slitlamp lens system.

[4] = Plasma analysis: plasma concentration by fluorescence; type: in vivo; conditions: rabbit, i.v. 1 μmol/kg
Procedure: as §1

[5] = tested on: normal NZW rabbits; experiment: Fluorescence angiography in normal NZW rabbits with fundoscopy and H&E histology (safety); type: in vivo, rabbit; conditions: i.v. 1-10 μmol/kg, fluorescein and ICG angiography and H&E histology
Procedure: Fluorescence angiography comparing LuT2BET, fluorescein, and ICG was performed on normal NZW rabbits. Normal rabbits (n=4) received an intravenous injection of LuT2BET from 1-10 μmol/kg after intramuscular sedation and pupillary dilatation. Extensive fundoscopy was performed immediately and up to 2 hours post texaphyrin, fluorescein, or ICG administration. […] In further studies, vascular lesions including neovascularization was induced in albino rabbits (NZW) using photocoagulation. PDT using LuT2BET was carried out on the induced lesions. […] Therefore, selective accumulation of Lu(III)T2BET in areas of neovascularization should facilitate diagnosis and photodynamic therapy of age-related macular degeneration and other disorders related to abnormal vasculature.
Dyes. Lutetium texaphyrin, Lu(III)T2BET, was dissolved in 5% mannitol at a concentration of 2 mM. Indocyanine-green (ICG, Cardio-Gree^n®, Becton Dickinson and Company, Cockeysville, Md.) and fluorescein (Alcon Laboratories, Fort Worth, Tex.) fluorescent angiograms were performed at concentrations of 0.31 mg/kg and 7.5 mg/kg, respectively. […]
Photography. Fundus photography and fluorescence angiograms were performed with the TOPCON™50VT camera coupled to the Ophthalmic Imaging System (Ophthalmic Imaging System Inc., Sacramento, Calif.). […] ICG was excited at 790-805 nm and fluorescence detected at 835 nm. […]

[6] = Absorption spectrum and fluorescence profile; type: physicochemical
[7] = cited from earlier work; remark: listed apart in the source

Compound: CCOC(=O)C1=Cc2c3nc(cc4nc(cc5[n-]c(cc6[n-]c2c(C)c6CC)c(C)c5CC)C(C)=C4CC)[C@@H](C)[C@]13CC.[Cl-].[Cl-].[Sn] (racemic) [SnET2, Tin etiopurpurin]
- solubility in aqueous solutions [1]: insoluble

Compound: CC1(C)C(/C=C/C=C/C=C/C=C2\N(CCCCS(=O)(=O)O)c3ccc4ccccc4c3C2(C)C)=[N+](CCCCS(=O)(=O)[O-])c2ccc3ccccc3c21 [ICG, indocyanine green, reference compound]
- binding to plasma elements (in words) [2]: binding mainly to albumin

Compound: CC(=O)[O-].CC(=O)[O-].CCc1c(CC)c2cc3nc(cnc4cc(OCCOCCOCCOC)c(OCCOCCOCCOC)cc4ncc4nc(cc1[n-]2)C(CCCO)=C4C)C(C)=C3CCCO.O.[Lu+3] [LuT2BET]
- relative in vivo binding, HDL fraction ([2]; rabbit plasma): 49%
- relative in vivo binding, LDL portion ([2]; rabbit plasma): 10.5%
- relative in vivo binding, heavy proteins ([2]; rabbit plasma): 40.5%
- binding to plasma elements (in words) [2]: predominantly bound to lipoproteins and to some extent albumin
- damage in control normal choroid or retinal tissue after PDT [3]: no damage was observed
- damage to surrounding vessels or tissues after PDT [3]: No damage
- closure of induced lesions after PDT ([3]; 488 nm light 30 min after injection, spot size 1000 μm): Closure of induced lesions was observed
- fluorescein leakage outside the treated vessel after PDT ([3]; fluorescein angiogram after PDT): limited fluorescence leakage outside of the PDT-treated vessel
- concentration in plasma ([4]; 15 min): 2680 ng/mL
- concentration in plasma ([4]; 30 min): 1790 ng/mL
- concentration in plasma ([4]; 3 hr): 180 ng/mL
- concentration in plasma ([4]; 5 h): 120 ng/mL
- normal tissue damage after fluorescence angiography [5]: no evidence of normal tissue damage
- absorption bands [6]: 470 nm and 732 nm
- fluorescence emission profile centre [6]: 750 nm
- extinction coefficient ε ([6]; at 732 nm): 32,000 M^−1 cm^−1
- fluorescence emission FWHM ([6]; emission centered at 750 nm): 60 nm

Compound: O=C1OC2(c3ccc(O)cc3Oc3cc(O)ccc32)c2ccccc21 [fluorescein, reference compound]
- binding to plasma elements (in words) [2]: not bound to plasma elements

Compound: Benzoporphyrin derivative [BPD]
- solubility in aqueous solutions [1]: insoluble
- duration of cutaneous photosensitivity ([7]; in vivo): a few days

Compound: porfimer sodium
- duration of cutaneous photosensitivity ([7]; light of 630 nm): up to 6 weeks
